For 2 compounds, IC50 results are on record in paper PMC10300260 (The Journal of Biological Chemistry, 2023).

Test [1] has as its target T1, TcK2 (T. cruzi eIF2α kinase 2, PERK homologue).
T1 construct: gene TcYC6_0089220; kinase domain KD5 (S659-I976)
Nature of the test: LANCE TR-FRET kinase assay with p70S6K peptide; DSF ΔTm […] °C; knockout parasites less sensitive. Type of test: biochemical, Trypanosoma cruzi.

The target is the same in test [2]. Nature of the test: LANCE TR-FRET kinase assay with p70S6K peptide; DSF ΔTm […] °C. Format: biochemical, Trypanosoma cruzi.

Each structure is given as a SMILES string.

As to `Cc1nc(Nc2ncc(C(=O)Nc3c(C)cccc3Cl)s2)cc(N2CCN(CCO)CC2)n1` [Dasatinib], the IC50 in test [1] came out at 190 ± 20 nM. `Cn1cc(-c2[nH]c3cc(NC(=O)[C@H](N)C4CCCCC4)cc4c3c2C=NNC4=O)cn1` [PF-477736]: the IC50 in test [2] was 670 ± 20 nM.
